These results are taken from publication PMC13360702, “An Agonist/Antagonist Photo‐Switchable Vitamin D Mimetic Enables Bidirectional Optical Control of VDR” (Angewandte Chemie (International Ed. in English), 2026).

The experiment addresses T1, VDR (Homo sapiens, UniProt P11473).
T1 construct: -CMV-VDR-LBD coding for the hinge region and; expressed in transfected cells; host or cells: HEK293T
T1 sequence (P11473 127-423 limits assumed): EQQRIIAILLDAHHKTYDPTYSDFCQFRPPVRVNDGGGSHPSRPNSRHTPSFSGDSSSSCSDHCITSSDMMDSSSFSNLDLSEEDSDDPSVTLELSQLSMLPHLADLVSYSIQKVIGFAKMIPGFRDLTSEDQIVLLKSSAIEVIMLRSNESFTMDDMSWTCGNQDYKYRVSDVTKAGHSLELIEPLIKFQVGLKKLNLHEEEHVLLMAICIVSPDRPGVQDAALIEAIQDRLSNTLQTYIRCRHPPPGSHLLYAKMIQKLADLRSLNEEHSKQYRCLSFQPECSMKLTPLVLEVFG
The experiment is described as follows: fluorescent (mCherry) reporter gene assay, in‐cell VDR activation over time. It counts as cell-based. Conditions: 1 µM. The procedure: To evaluate the potential of 10 for in‐cell control of VDR activity, we determined its light‐dependent effect over time (Figure 3a) using VDR‐induced expression of the fluorescent protein mCherry as reporter for non‐invasive monitoring. Under illumination with a Cell‐Disco [24]
FIGURE 3 Optical control of VDR activity with photo‐vitD (10). (a) 10 (1 µM) enabled light‐dependent in‐cell activation of VDR in a fluorescent (mCherry) reporter gene assay. Gray curve: dark; blue curve: Cell‐Disco (370 nm; 100 ms/10 s); yellow curve: dark for 10 h, then Cell‐Disco (370 nm); magenta curve: Cell‐Disco (370 nm) for 10 h, then Cell‐Disco (450 nm). Lines are the mean, shadows are S.E.M.; n = 6. (b–d) Phenotypic model of bone formation using human […] (ASC52telo hTERT cells) and cyclic treatment with dexamethasone, 2‐phospho‐L‐ascorbic acid, and glycerol 2‐phosphate over 15 days to induce osteogenesis. Alkaline phosphatase (ALP) activity (b) and von Kossa staining of hydroxyapatite (c; representative photomicrographs in d) were used as markers of osteogenesis. Experiments were performed in the dark (gray bars) and using a Cell‐Disco (370 nm, 100 ms/10 s; blue bars). Data are the mean±SD, n = 6. * p<0.05, ** p<0.01, *** p<0.001 (vs. respective dark or illuminated DMSO (diff.) ctrl or as indicated; ANOVA with Dunnett's multiple comparisons test).
Gal4-hybrid reporter gene assays. […] After 14−16 h incubation, luciferase activity was measured using the Dual -Glo Luciferase Assay System (Promega) according to the manufacturer’s protocol on a Tecan Spark luminometer (Tecan Deutschland GmbH, Crailsheim, Germany). […] EC 50 and IC50 values were calculated by fitting dose−response data with the equation “[agonist] vs response − variable slope (four parameters)” or “[inhibitor] vs response − variable slope (four parameters)” in GraphPad Prism (version 7, GraphPad software, La Jolla, CA, USA). […]
Fluorescent Reporter Gene Assay. The fluorescence reporter gene assay was performed in HEK293T […]
(Reporter assays use an easily measured gene product as a stand-in for the process of interest.)

Molecules are shown by their SMILES.

With `CCCc1cc(C(O)(CC)CC)ccc1-c1ccc(/N=N/c2ccc3cc(C(=O)O)ccc3c2)cc1C` [compound 10], the “VDR‐induced mCherry fluorescence over time” value runs as follows: (Cell‐Disco 370 nm for 10 h, then switched back to (E)‐state with 450 nm light) “the increase in mCherry fluorescence ceased”; (Cell‐Disco 370 nm, 100 ms/10 s ((Z)‐state)) “mCherry fluorescence constantly increased”; (without illumination (dark)) “no increase in fluorescence”.
